Data taken from article PMC6410202, “Dual Action of the PN159/KLAL/MAP Peptide: Increase of Drug Penetration across Caco-2 Intestinal Barrier Model by Modulation of Tight Junctions and Plasma Membrane Permeability” (Pharmaceutics, 2019).

How the values were obtained:
Caco-2 cells [1] = assay: Transmission electron microscopy of tight junctions; format: cell-based, human; settings: 30 min
Method: Cells grown on culture inserts were treated with 10 μM PN159 peptide for 30 min and fixed immediately after treatment or after a 1-day recovery. Cells were briefly washed with phosphate-buffered saline (PBS) and fixed with 3% paraformaldehyde containing 0.5% glutaraldehyde in cacodylate buffer (pH 7.4) for 30 min at 4 °C. After washing with the buffer several times, cells were postfixed in 1% OsO4 for 20 min. Following a rinse with distilled water, the cells were block stained with 1% uranyl acetate in 50% ethanol for 20 min, dehydrated in graded ethanol and after the last step of dehydration inserts were placed in the 1:1 mixture of ethanol and Taab 812 (Taab; Aldermaston, Berks, UK) for 10 min at 30°C. Finally, the membranes of the culture inserts with the cells were removed from their support and embedded in Taab 812. Polymerization was performed overnight at 60°C. Ultrathin sections were cut perpendicularly for the membrane using a Leica EM UC6 ultramicrotome (Nussloch, Germany) and picked up on formvar-coated single-slot copper grids. […] Altogether, 105 non-overlapping images from the 3 groups at the same magnification were analyzed for the presence or absence of tight junctions (control group n = 28; PN159 group n = 42; recovery group n = 35).

claudin-1 = test system: claudin-1; parameters: method as in PMID 26869428; settings: affinity measurements; cited from earlier work
Caco-2 cell layers [2] = assay: Penetration of marker and drug molecules across Caco-2 cell layers (Papp A-B); settings: PN159 10 and 30 μM, 1-h treatment
Method: In the permeability experiments inserts with Caco-2 cell layers grown for 3 weeks were transferred to 12-well plates containing 1.5 mL Ringer–Hepes buffer in the lower (basal or acceptor) compartments. In the upper or apical compartments culture medium was replaced by 0.5 mL buffer containing peptide solutions: PN159 peptide at 1, 3, 10 and 30 μM concentrations and CPPs at 100 μM concentration. […] The incubation with permeability markers in the presence of PN159 peptide lasted for 30 min. In case of CPPs the incubation time with fluorescein was 1-h. Samples were collected from both compartments and the concentrations of the marker molecules were determined by a fluorescence multi-well plate reader (Fluostar Optima; excitation wavelength: 485 nm, emission wavelength: 535 nm in the case of fluorescein and excitation wavelength: 584 nm, emission wavelength: 680 nm in the case of Evans-blue labeled albumin). Fluorescein isothiocyanate (FITC)-labelled dextran marker molecules (Table 1) were used at 1 mM concentrations, and fluorescence intensities of collected samples were measured using a Fluorolog FL3-22 (Horiba Jobin Yvon, Paris, France) spectrofluorometer using 492 nm excitation wavelength, 515 nm emission wavelength, and 0.5 s integration time. Drugs were used at 10 μM concentrations and samples were measured by HPLC as described below. The apparent permeability coefficients (Papp) were calculated as described previously. Briefly, cleared volume was calculated from the concentration difference of the tracer in the basal compartments (Δ[C]B) after 30 min and apical compartments at 0 h ([C]A), the volume of the basal compartment (VB; 1.5 mL) and the surface area available for permeability (A; 1.1 cm^2).
Analytical measurements were performed on a Merck-Hitachi LaChrom HPLC system equipped with an ultraviolet (UV) and fluorescence detector (Merck, Darmstadt, Germany). All reagents used were of analytical reagent grade. […] In both cases 10μL sample was injected into the chromatographic system.
The chromatographic column was maintained at 40 °C and the 5 μL sample was injected onto the column.
The column temperature was maintained at 40 °C and a 20 μL sample was injected onto the chromatographic system. […] UV detection was set at 228 nm.

Caco-2 cell layers [3] = assay: Transepithelial electrical resistance (TEER) of Caco-2 cell layers; format: cell-based, human; settings: for TEER, % of the control value: PN159 10 μM
Method: For the measurement of barrier integrity Caco-2 cells were seeded onto culture inserts (Transwell 3460, polyester membrane, 0.4 µm pore size, Corning Costar) and cultured for three weeks. Transepithelial electrical resistance (TEER) reflects the tightness of the intercellular junctions. […]. Resistance of cell-free inserts (130 Ω × cm^2) was subtracted from the measured values. TEER values were measured before and right after permeability experiments). TEER values indicated the integrity and paracellular permeability of cell layers for ions. The TEER of Caco-2 monolayers was 1302 ± 49 Ω × cm^2 (mean ± SD; n = 46) after 3 weeks culturing. For the recovery experiment, after changing the 10 μM peptide solutions to culture medium, TEER was monitored for one day.

Caco-2 epithelial cells = assay: Ethidium homodimer-1 staining, cell membrane integrity; format: cell-based, human; settings: PN159 1 to 10 μM, 24-h treatments
Method: Besides the junctional effects, changes in the cell membrane integrity were also examined by ethidium homodimer-1 (856.77 Da) staining of Caco-2 epithelial cells after 24-h treatments in the concentration range of 1 to 10 μM.
Figure 7 (A) Fluorescent staining of juntional protein zonula occludens-1 and double staining of cell nuclei in Caco-2 cells after 1-h treatment with PN159 peptide. Green color: immunostaining for ZO-1. Red color: staining by ethidium homodimer-1 (EH-1), indicating increased membrane permeability.Blue color: staining of all cell nuclei by H33342. Bar = 10 µm. (B) Confocal microscopy images of living Caco-2 epithelial cells incubated with Bodipy FL labeled PN159 peptide in different concentrations for 5 min at 37°C. Green color: BodipyFL-PN159 peptide. Blue color: staining of cell nuclei. Bar = 10 µm.

[4] = test system: respiratory epithelial tissue (EpiAirway model); parameters: method as in PMID 16625659; settings: 1-h treatment; cited from earlier work
Caco-2 cells [5] = assay: Cellular uptake of Bodipy FL labeled PN159, confocal microscopy; format: cell-based, human; settings: Bodipy FL labeled PN159, 10 µM, 5 min, claudin-4 immunostaining
Method: The Caco-2 cells were grown on glass bottomed petri dishes coated with collagen to visualize the cellular uptake of the Bodipy FL maleimide labeled (BODIPY FL N-(2-aminoethyl) maleimide, Thermo Fischer, Waltham, MA, USA) PN159 peptide. The cells were treated with peptide at concentrations of 1, 3 and 10 µM for 5 min. To stain the cell nuclei the H33342dye (1 μg/mL) was used before peptide treatment for 10 min. After peptide incubation the living cells were washed three times with Ringer–Hepes buffer supplemented with 1%fetal bovine serum (FBS) and examined immediately with a Visitron spinning disk confocal system.
In the case of the co-localization analysis the labeled PN159 peptide was used in 10 µM for 5 min. Then the cellular uptake cells were fixed and immunohistochemistry was performed for claudin-4. The samples were mounted and visualized by a Leica TCS SP5 confocal laser-scanning microscope.

SMILES: CC(C)C[C@H](NC(=O)[C@H](C)NC(=O)[C@H](CCCCN)NC(=O)[C@H](CC(C)C)NC(=O)[C@H](C)NC(=O)[C@H](CC(C)C)NC(=O)[C@H](CCCCN)NC(=O)[C@H](CC(C)C)NC(=O)[C@H](C)NC(=O)[C@H](CC(C)C)NC(=O)[C@@H](N)CCCCN)C(=O)N[C@@H](CCCCN)C(=O)N[C@@H](C)C(=O)N[C@@H](C)C(=O)N[C@@H](CC(C)C)C(=O)N[C@@H](CCCCN)C(=O)N[C@@H](CC(C)C)C(=O)N[C@@H](C)C(N)=O [PN159]
- Ultrastructure of epithelial junctions (Caco-2 cells [1]; 1-day recovery after PN159 10 μM): became similar to control cells
- Tight junctions by electron microscopy (Caco-2 cells [1]; PN159 10 μM): no junctions were observed
- Binding (claudin-1): in the micromolar range
- Permeability enhancement for fluorescein and albumin (Caco-2 cell layers [2]): most effective permeability enhancer activity
- TEER recovery (Caco-2 cell layers [3]; 20 h after removal of PN159 (10 μM, 30 min)): complete recovery
- TEER, % of the control value (Caco-2 cell layers [3]; 1-min treatment): 42%
- TEER, % of the control value (Caco-2 cell layers [3]; 5 min): 16%
- TEER, % of the control value (Caco-2 cell layers [3]; 15 min): 2.7%
- TEER, % of the control value (Caco-2 cell layers [3]; 30 min): 1.4%
- Decrease in TEER (Caco-2 cell layers [3]; PN159 10 and 30 μM, 1-h treatment): 80–90%
- Resistance of epithelial cell layers (TEER) (Caco-2 cell layers [3]; all tested concentrations (1, 3, 10, 30 μM), 1-h treatment): significantly decreased the resistance
- Plasma membrane entry of ethidium homodimer-1 (Caco-2 epithelial cells): Only the highest PN159 concentration caused plasma membrane entry of the red fluorescent dye
- Safe concentration (MTT) [4]: up to 100 μM
- Co-localization with claudin-4 (Caco-2 cells [5]): visible in the cytoplasm and also in the cell membrane at the level of intercellular junctions
